Earlier results in patent publication US20070191304A1, “Methods for performing percutaneous coronary intervention” (priority 2005, published 2007).

Settings: bivalirudin plus GP IIb/IIIa inhibitors

bivalirudin
Primary endpoint of death, myocardial infarction, urgent revascularization and major bleeding, compared to UFH plus planned GP IIb/IIIa inhibitors: noninferior
